Data on 2 compounds can be found in ChEMBL document CHEMBL1134526, “Enantioselective syntheses of potent retinoid X receptor ligands: differential biological activities of individual antipodes” (J Med Chem, 2001).

Format in all cases: functional
For assay [1], the system named is Mus musculus. Nature of the assay: Hypoglycemic activity in mice at 8 mg/kg dose at day=7.
The subject of assay [2] is Mus musculus. Nature of the assay: Hypoglycemic activity in mice at 2 mg/kg dose at day=0.
For assay [3], the system named is Mus musculus. The experiment in a line: Hypoglycemic activity in mice at 2 mg/kg dose at day=7.
In assay [4] the test system is Mus musculus. The experiment in a line: Hypoglycemic activity in mice at 8 mg/kg dose at day=0.
Assay [5] concerns Mus musculus. The experiment in a line: Hypoglycemic activity in mice at 0.4 mg/kg dose at day=0.
For assay [6], the system named is Mus musculus. The experiment in a line: Hypoglycemic activity in mice at 0.4 mg/kg dose at day=7.

For `CC(/C=C/[C@H]1C[C@@]1(C)c1ccc2c(c1)C(C)(C)CCC2(C)C)=C\C(=O)O`, the Glucose level in assay [1] came out at 441 mg/dL; in assay [2], 400 mg/dL; in assay [3], 391 mg/dL; in assay [4], 404 mg/dL.
For `CC(/C=C/[C@@H]1C[C@]1(C)c1ccc2c(c1)C(C)(C)CCC2(C)C)=C\C(=O)O` [IRX-4204], the Glucose level in assay [5] came to 406 mg/dL; in assay [2] it was 404 mg/dL; in assay [6], 291 mg/dL; in assay [3], 221 mg/dL.
